According to patent US6638921B1, “Pyridoxal-5-phosphate derivatives as HIV integrase inhibitors” (Pharmacor Inc., priority 2002, dated 2003):
Counter-ions that a name gives are not always drawn. Like-named read-outs stand apart in the source and are kept apart here.

Assays:
HIV-1 integrase = HIV-1 integrase (Human immunodeficiency virus type 1 group M subtype B, UniProt P12497); experiment: HIV-1 integrase inhibition assay in vitro (radiolabeled duplex substrate, U5 end of HIV LTR); format: biochemical
Protocol: For the purpose of Table 1, the HIV-1 integrase inhibition assay was carried out following a known procedure (Burke, Jr. T. R. et al., J. Med. Chem. 38, 4171-4178 (1995)). A suitable radiolabeled duplex substrate corresponding to the U5 end of the HIV LTR was used.

[1] = tested on: HIV-1 laboratory viral strain NL4.3; experiment: Anti-viral assay in vitro (MTT, infected MT-4 cells); format: cell-based; conditions: reduce virus replication in cell culture by 50%, six days
Protocol: (§1) To evaluate the EC50 of our compounds, various drug concentrations are incubated with the infected cell for six days and then the metabolic activity of the cells is monitored by the MTT assay. (See A. J. Japour et al, Antimicrobial Agents and Chemotherapy, 37, 1095-1101, 1993 and R. Pauwels et al. Journal of Virological Methods, 20, 309-321, 1988).
(§2) We use the laboratory viral strain NL4.3 as wild type virus and the cell line used is MT-4 which is a T-cell line highly sensitive to HIV-1. We also use some WT clinical strains. To address the resistance issue we assay the inhibitors with NL4.3 mutants which are designed to be resistant to specific commercially available inhibitors. The following reagents were obtained through the AIDS Research and Reference Reagent Program, division of AIDS, NIAID, NIH: pNL4.3 from Dr. Malcolm Martin; MT-4 cell line from Dr. Douglas Richman. Wild type (WT) clinical strains were obtained from “Laboratoire de santé publique du Québec”.

MT-4 cell line = experiment: Cytotoxicity assay in vitro (MTT, virus omitted); format: cell-based
Protocol: as §1, §2
The same MTT assay is used to evaluate the CCIC50 of our compounds except that the virus is omitted.

[2] = concentration of drug required to reduce the enzyme activity by 50%, read-out: IC50
[3] = IC50, concentration of drug required to reduce the enzyme activity by 50%
[4] = Human immunodeficiency virus 1, MT4, 144 h

| Compound | IC50 (HIV-1 integrase; [2]) | also measured |
| --- | --- | --- |
| 6-[4-(N-(2-E-Caprolactamyl)-N-isobutylsulfamoyl)phenylazo]-pyridoxal-5-phosphate Hydrochloride [Example 5] | 600 nM | EC50 ([1]; read-out: EC50): 17000 nM; CCIC50 (MT-4 cell line): >100 µM |
| Cc1nc(N=Nc2cccc(C(=O)O)c2C)c(COP(=O)(O)O)c(C=O)c1O [Example 1, 6-(3-Carboxy-2-methylphenylazo)-pyridoxal-5-phosphate] |  | IC50 (HIV-1 integrase; [3]): 1200 nM; EC50 [1, 4]: 2000 nM; CCIC50 (MT-4 cell line; human, 6 days): >100 µM |
| Cc1nc(N=Nc2ccc(S(N)(=O)=O)cc2)c(COP(=O)(O)O)c(C=O)c1O [Example 2, 6-(4-Sulfamoylphenylazo)-pyridoxal-5-phosphate] |  | IC50 (HIV-1 integrase; [3]): 250 nM; EC50 [1, 4]: 5000 nM; CCIC50 (MT-4 cell line; human, 6 days): >100 µM |
| Cc1nc(N=Nc2ccc(S(=O)(=O)NC34CC5CC(CC(C5)C3)C4)cc2)c(COP(=O)(O)O)c(C=O)c1O [Example 3, 6-[4-(N-(1-Adamantyl)sulfamoyl)phenylazo]-pyridoxal-5-phosphate Hydrochloride] |  | IC50 (HIV-1 integrase; [3]): 200 nM; EC50 [1, 4]: 19800 nM; CCIC50 (MT-4 cell line; human, 6 days): 12 µM |
| Cc1nc(N=Nc2cccc(C(=O)NC34CC5CC(CC(C5)C3)C4)c2)c(COP(=O)(O)O)c(C=O)c1O [Example 4, 6-[3-(N-(1-Adamantyl)carbamoyl)phenylazo]-pyridoxal-5-phosphate Hydrochloride] |  | IC50 (HIV-1 integrase; [3]): 400 nM; EC50 [1, 4]: 50000 nM; CCIC50 (MT-4 cell line; human, 6 days): 13 µM |
| Cc1nc(N=Nc2cccc(S(=O)(=O)N3CCCCC3)c2)c(COP(=O)(O)O)c(C=O)c1O [Example 6, 6-[3-(1-Piperidinesulfonyl)phenylazo]-pyridoxal-5-phosphate] | 4370 nM |  |
| Cc1nc(/N=N/c2cccc(C(=O)N3CCCCC3)c2)c(COP(=O)(O)O)c(C=O)c1O [Example 8, 6-[3-(1-Piperidinecarbonyl)phenylazo]-pyridoxal-5-phosphate] | 2800 nM |  |
| Cc1nc(N=Nc2ccc(S(=O)(=O)NC(C)(C)C)cc2)c(COP(=O)(O)O)c(C=O)c1O [Example 10, 6-[4-(tert-Butylsulfamoyl)phenylazo]-pyridoxal-5-phosphate] | 4250 nM |  |
| Cc1nc(N=Nc2ccc(C(=O)NC(C)(C)C)cc2)c(COP(=O)(O)O)c(C=O)c1O [Example 11, 6-[4-(tert-Butylcarbamoyl)phenylazo]-pyridoxal-5-phosphate] | 2730 nM |  |
| Cc1nc(N=Nc2cccc(S(=O)(=O)N3CCCC3)c2)c(COP(=O)(O)O)c(C=O)c1O [Example 12, 6-[3-(1-Pyrrolinesulfonyl)phenylazo]-pyridoxal-5-phosphate] | 2900 nM |  |
| Cc1nc(N=Nc2ccc(C(=O)NC3CCCCC3)cc2)c(COP(=O)(O)O)c(C=O)c1O [Example 14, 6-[4-(Cyclohexylcarbamoyl)phenylazo]-pyridoxal-5-phosphate] | 4360 nM |  |
| Cc1nc(N=Nc2ccc(S(=O)(=O)N3CCCC3)cc2)c(COP(=O)(O)O)c(C=O)c1O [Example 15, 6-[4-(1-Pyrrolinesulfonyl)phenylazo]-pyridoxal-5-phosphate] | 1700 nM |  |
| Cc1nc(N=Nc2cccc(S(=O)(=O)NCC(C)C)c2)c(COP(=O)(O)O)c(C=O)c1O [Example 16, 6-[3-(Isobutylsulfamoyl)phenylazo]-pyridoxal-5-phosphate] | 1900 nM |  |
| Cc1nc(N=Nc2ccc(S(=O)(=O)NCC(C)C)cc2)c(COP(=O)(O)O)c(C=O)c1O [Example 17, 6-[4-(Isobutylsulfamoyl)phenylazo]pyridoxal-5-phosphate] | 2450 nM |  |
| Cc1nc(N=Nc2ccc(S(=O)(=O)NC3CCCCC3)cc2)c(COP(=O)(O)O)c(C=O)c1O [Example 18, 6-[4-(Cyclohexylsulfamoyl)phenylazo]-pyridoxal-5-phosphate] | 2200 nM |  |
| CCCCNS(=O)(=O)c1cccc(N=Nc2nc(C)c(O)c(C=O)c2COP(=O)(O)O)c1 [Example 19, 6-[3-(Butylsulfamoyl)phenylazo]-pyridoxal-5-phosphate] | 2000 nM |  |

| Compound | IC50 (HIV-1 integrase; [2]) | also measured |
| --- | --- | --- |
| CNS(=O)(=O)c1ccc(N=Nc2nc(C)c(O)c(C=O)c2COP(=O)(O)O)cc1 [Example 20, 6-[4-(Methylsulfamoyl)phenylazo]-pyridoxal-5-phosphate] | 1200 nM |  |
| Cc1nc(N=Nc2cccc(S(=O)(=O)NCCO)c2)c(COP(=O)(O)O)c(C=O)c1O [Example 21, 6-[3-(2-Hydroxyethylsulfamoyl)phenylazo]-pyridoxal-5-phosphate] | 2450 nM |  |
| Cc1nc(N=Nc2cc(C(=O)O)cc(C(=O)O)c2)c(COP(=O)(O)O)c(C=O)c1O [Example 22, 6-(3,5-Dicarboxyphenylazo)-pyridoxal-5-phosphate] |  | IC50 (HIV-1 integrase; [3]): 430 nM; CCIC50 (MT-4 cell line; human, 6 days): >100 µM |
| Cc1cc(NS(=O)(=O)c2ccc(N=Nc3nc(C)c(O)c(C=O)c3COP(=O)(O)O)cc2)nc(C)n1 [Example 23] | 2750 nM |  |
| CNS(=O)(=O)c1cccc(N=Nc2nc(C)c(O)c(C=O)c2COP(=O)(O)O)c1 [Example 26, 6-[3-(Methylsulfamoyl)phenylazo]-pyridoxal-5-phosphate] | 3700 nM |  |
| Cc1nc(N=Nc2ccc(S(=O)(=O)Nc3ccon3)cc2)c(COP(=O)(O)O)c(C=O)c1O [Example 32, 6-[4-(3-Isoazolylsulfamoyl)phenylazo]-pyridoxal-5-phosphate] | 3000 nM | EC50 [1, 4]: 50000 nM |
| Cc1nc(N=Nc2ccccc2[N+](=O)[O-])c(COP(=O)(O)O)c(C=O)c1O [Example 33, 6-(2-Nitrophenylazo)-pyridoxal-5-phosphate] | 5250 nM | EC50 [1, 4]: 33000 nM |
| Cc1nc(N=Nc2cccc(Cl)c2)c(COP(=O)(O)O)c(C=O)c1O [Example 34, 6-(3-Chlorophenylazo)-pyridoxal-5-phosphate] | 2600 nM | EC50 [1, 4]: 45000 nM |
| Cc1nc(N=Nc2cccc(S(N)(=O)=O)c2)c(COP(=O)(O)O)c(C=O)c1O [Example 35, 6-(3-Sulfamoylphenylazo)-pyridoxal-5-phosphate] | 12800 nM |  |
| Cc1nc(N=Nc2cccc(C(=O)NC3=NCCCN3)c2)c(COP(=O)(O)O)c(C=O)c1O [Example 36, 6-[3-(2-(1,4,5,6-Tetrahydropyrimidyl)carbamoyl)phenylazo]-pyridoxal-5-phosphate] | 6200 nM |  |
| Cc1nc(N=Nc2ccc(C#N)cc2)c(COP(=O)(O)O)c(C=O)c1O [Example 42, 6-(4-Cyanophenylazo)-pyridoxal-5-phosphate] |  | IC50 (HIV-1 integrase; [3]): 11300 nM; CCIC50 (MT-4 cell line; human, 6 days): >100 µM |
| Cc1nc(N=Nc2ccc(C(N)=O)cc2)c(COP(=O)(O)O)c(C=O)c1O [Example 43, 6-(4-Carbamoylphenylazo)-pyridoxal-5-phosphate] | 8700 nM |  |
| Cc1nc(N=Nc2ccc(S(=O)(=O)Nc3ccccc3F)cc2)c(COP(=O)(O)O)c(C=O)c1O [Example 44, 6-[4-(2-Fluorophenylsulfamoyl)phenylazo]pyridoxal-5-phosphate] | 7700 nM |  |
| Cc1nc(N=Nc2ccc(S(=O)(=O)Nc3cccc(F)c3)cc2)c(COP(=O)(O)O)c(C=O)c1O [Example 45, 6-[4-(3-Fluorophenylsulfamoyl)phenylazo]-pyridoxal-5-phosphate] | 10500 nM |  |
| Cc1nc(N=Nc2ccc(S(=O)(=O)Nc3ccc(F)cc3)cc2)c(COP(=O)(O)O)c(C=O)c1O [Example 46, 6-[4-(4-Fluorophenylsulfamoyl)phenylazo]-pyridoxal-5-phosphate] |  | IC50 (HIV-1 integrase; [3]): 1500 nM; CCIC50 (MT-4 cell line; human, 6 days): 32 µM |
| Cc1nc(N=Nc2ccc(S(=O)(=O)Nc3ncccn3)cc2)c(COP(=O)(O)O)c(C=NO)c1O [Example 53, 6-[4-(2-Pyrimidylsulfamoyl)phenylazo]-pyridoxal-5-phosphate Oxime] | 2000 nM | EC50 [1, 4]: 15000 nM |
